Measured values: patent publication US12378211B2, “Carbonic anhydrase inhibitors and antibiotics against multidrug resistant bacteria” (Purdue Research Foundation, priority 2018, dated 2025)
Values after ≈ are worked out from the molar mass of the structure shown. Where two headings read alike, the source gives them in different places.

Key:
[1] = tested on: Mutant-11 of Enterococcus fecalis NR 31975; assay: microbe, parasite or virus in culture; type: cell-based
[2] = tested on: Enterococcus faecium E417-HM-965; assay: MIC, broth microdilution in TSB; type: cell-based; details: TSB
Outline: (§1)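 CLSI broth microdilution: overnight agar-grown enterococci adjusted to 0.5 McFarland, diluted in TSB to about 5×10^5 CFU/mL, then exposed to serially diluted compounds. Incubated aerobically at 37 °C for 18-20 h. MIC is the lowest concentration giving no visible growth.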

[3] = tested on: Enterococcus fecalis Strain MMH594-NR31975; assay: MIC, broth microdilution in TSB; type: cell-based; details: TSB
Outline: as §1

[4] = tested on: Enterococcus faecalis—S613 HM-334; assay: MIC, broth microdilution in TSB; type: cell-based; details: TSB
Outline: as §1

[5] = tested on: Enterococcus faecium Patient #3-1 NR-31912; assay: MIC, broth microdilution in TSB; type: cell-based; details: TSB
Outline: as §1

[6] = tested on: Mutant-8 of Enterococcus fecalis NR 31975; assay: microbe, parasite or virus in culture; type: cell-based
[7] = tested on: Mutant-2 of Enterococcus fecalis NR 31975; assay: microbe, parasite or virus in culture; type: cell-based
[8] = tested on: Staphylococcus epidermidis NRS 101; assay: MIC against Staphylococci, broth microdilution; type: cell-based; details: TSB
Outline: (§2)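 CLSI broth microdilution in tryptone soy broth, inoculum about 5×10^5 CFU/mL from overnight agar cultures at 0.5 McFarland, with serially diluted compound. Plates were incubated aerobically at 37° C for 18-20 h. MIC was the lowest concentration with no visible growth.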

[9] = tested on: Mutant-4 of Enterococcus fecalis NR 31975; assay: microbe, parasite or virus in culture; type: cell-based
[10] = tested on: Lactobacillus casei ATCC 334; assay: MIC against human normal gut microbiota; type: cell-based; details: MRS broth, 5% CO2, 48 hours
Outline: (§3)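 Broth microdilution with ~5×10^5 CFU/ml inoculum from 0.5 McFarland suspension; Bifidobacterium and Bacteroides in supplemented BHI broth, anaerobic, Lactobacillus in MRS broth under 5% CO2. Plates with serial compound dilutions incubated 48 h at 37° C.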

[11] = tested on: Lactobacillus gasseri EX336960VC03 HIM-400; assay: MIC against human normal gut microbiota; type: cell-based; details: MRS broth, 5% CO2, 48 hours
Outline: as §3

[12] = tested on: Bifidobacterium breve—JCP7499 HIM 1120; assay: MIC against human normal gut microbiota; type: cell-based; details: BHIS broth, anaerobic, 48 hours
Outline: as §3

[13] = tested on: Bacteroides fragilis—CL07T00C01 HIM-709; assay: MIC against human normal gut microbiota; type: cell-based; details: BHIS broth, anaerobic, 48 hours
Outline: as §3

[14] = tested on: Bacteroides dorei—CL02T12C06 HM-719; assay: MIC against human normal gut microbiota; type: cell-based; details: BHIS broth, anaerobic, 48 hours
Outline: as §3

[15] = tested on: Bifidobacterium longum subsp. Longum—44B HM 845; assay: MIC against human normal gut microbiota; type: cell-based; details: BHIS broth, anaerobic, 48 hours
Outline: as §3

[16] = tested on: Mutant-3 of Enterococcus fecalis NR 31975; assay: microbe, parasite or virus in culture; type: cell-based
[17] = tested on: Mutant-5 of Enterococcus fecalis NR 31975; assay: microbe, parasite or virus in culture; type: cell-based
[18] = tested on: Mutant-6 of Enterococcus fecalis NR 31975; assay: microbe, parasite or virus in culture; type: cell-based
[19] = tested on: Mutant-9 of Enterococcus fecalis NR 31975; assay: microbe, parasite or virus in culture; type: cell-based
[20] = tested on: Mutant-13 of Enterococcus fecalis NR 31975; assay: microbe, parasite or virus in culture; type: cell-based
[21] = tested on: MRSA NRS 384 (MRSA USA300); assay: MIC against Staphylococci, broth microdilution; type: cell-based, Staphylococcus aureus; details: TSB
Outline: as §2

[22] = tested on: Mutant-7 of Enterococcus fecalis NR 31975; assay: microbe, parasite or virus in culture; type: cell-based
[23] = tested on: Mutant-15 of Enterococcus fecalis NR 31975; assay: microbe, parasite or virus in culture; type: cell-based
[24] = tested on: Mutant-12 of Enterococcus fecalis NR 31975; assay: microbe, parasite or virus in culture; type: cell-based
[25] = tested on: Mutant-14 of Enterococcus fecalis NR 31975; assay: microbe, parasite or virus in culture; type: cell-based
[26] = Enterococcus, Table 1, read-out: MIC
[27] = Enterococcus, Table 7, read-out: MIC in TSB
[28] = Staphylococcus epidermidis, NRS101, read-out: MIC
[29] = Lacticaseibacillus casei, ATCC334, read-out: MIC
[30] = Lactobacillus gasseri, read-out: MIC
[31] = Bifidobacterium longum, read-out: MIC
[32] = Staphylococcus aureus, read-out: MIC

In the case of `NS(=O)(=O)c1nnc(NC(=O)CCC2CCCC2)s1` [CAI0015], the MIC ([1]; Mutant-11) is reported as 2 µg/mL (≈ 6.57 µM), the MIC ([2]; Table 1) is reported as 0.25 µg/mL (≈ 0.821 µM) and the “MIC in TSB” value ([2]; Table 7) is reported as 0.06 µg/mL (≈ 0.197 µM). For the same compound, the MIC ([3]; Table 1) was 0.06 µg/mL (≈ 0.197 µM), the “MIC in TSB” value ([3]; Table 7) was 0.06 µg/mL (≈ 0.197 µM) and the MIC ([4]; Table 1) was 0.125 µg/mL (≈ 0.411 µM). The “MIC in TSB” value ([4]; Table 7) was 0.06 µg/mL (≈ 0.197 µM), the MIC ([5]; Table 1) was 1 µg/mL (≈ 3.29 µM) and the “MIC in TSB” value ([5]; Table 7) was 0.125 µg/mL (≈ 0.411 µM). For the same compound, the MIC ([6]; Mutant-8) was 2 µg/mL (≈ 6.57 µM), the MIC ([7]; Mutant-2) was 2 µg/mL (≈ 6.57 µM) and the MIC [8] was >64 µg/mL. The MIC ([9]; Mutant-4) was 1 µg/mL (≈ 3.29 µM), the MIC [10] was >64 µg/mL and the MIC [11] was >64 µg/mL. For the same compound, the MIC [12] was >64 µg/mL, the MIC [13] was >64 µg/mL and the MIC [14] was >64 µg/mL. For the same compound, the MIC [15] was >64 µg/mL, the MIC ([16]; Mutant-3) was 1 µg/mL (≈ 3.29 µM) and the MIC ([17]; Mutant-5) was 1 µg/mL (≈ 3.29 µM). It also gave an MIC ([18]; Mutant-6) of 1 µg/mL (≈ 3.29 µM), an MIC ([19]; Mutant-9) of 1 µg/mL (≈ 3.29 µM) and an MIC ([20]; Mutant-13) of 1 µg/mL (≈ 3.29 µM). The MIC [21] was >64 µg/mL, the MIC ([22]; Mutant-7) was 0.25 µg/mL (≈ 0.821 µM) and the MIC ([23]; Mutant-15) was 1 µg/mL (≈ 3.29 µM). It also gave an MIC ([24]; Mutant-12) of 2 µg/mL (≈ 6.57 µM) and an MIC ([25]; Mutant-14) of 1 µg/mL (≈ 3.29 µM).
Work on `CC(=O)NC[C@H]1CN(c2ccc(N3CCOCC3)c(F)c2)C(=O)O1` [Linezolid, reference compound] yielded an MIC ([1]; Enterococcus) of 4 µg/mL (≈ 11.9 µM), an MIC [3, 26] of 1 µg/mL (≈ 2.96 µM) and an MIC [3, 27] of 1 µg/mL (≈ 2.96 µM). It also gave an MIC [4, 26] of 1 µg/mL (≈ 2.96 µM), an MIC [4, 27] of 1 µg/mL (≈ 2.96 µM) and an MIC ([6]; Enterococcus) of 8 µg/mL (≈ 23.7 µM). The MIC ([7]; Enterococcus) was 4 µg/mL (≈ 11.9 µM), the MIC [8, 28] was ≤ 0.5 µg/mL and the MIC ([9]; Enterococcus) was 4 µg/mL (≈ 11.9 µM). For the same compound, the MIC [10, 29] was 1 µg/mL (≈ 2.96 µM), the MIC [11, 30] was 2 µg/mL (≈ 5.93 µM) and the MIC ([12]; Bifidobacterium, read-out: MIC) was ≤ 0.5 µg/mL. The MIC ([13]; Bacteroides, read-out: MIC) was 2 µg/mL (≈ 5.93 µM), the MIC ([14]; Bacteroides, read-out: MIC) was 1 µg/mL (≈ 2.96 µM) and the MIC [15, 31] was ≤ 0.5 µg/mL. The MIC ([16]; Enterococcus) was 4 µg/mL (≈ 11.9 µM), the MIC ([17]; Enterococcus) was 4 µg/mL (≈ 11.9 µM) and the MIC ([18]; Enterococcus) was 4 µg/mL (≈ 11.9 µM). For the same compound, the MIC ([19]; Enterococcus) was 4 µg/mL (≈ 11.9 µM), the MIC ([20]; Enterococcus) was 4 µg/mL (≈ 11.9 µM) and the MIC [21, 32] was 2 µg/mL (≈ 5.93 µM). It also gave an MIC ([22]; Enterococcus) of 2 µg/mL (≈ 5.93 µM), an MIC ([23]; Enterococcus) of 8 µg/mL (≈ 23.7 µM) and an MIC ([24]; Enterococcus) of 4 µg/mL (≈ 11.9 µM). For the same compound, the MIC ([25]; Enterococcus) was 4 µg/mL (≈ 11.9 µM).
Compound `CCc1ccc(C(=O)Nc2nnc(S(N)(=O)=O)s2)cc1` [CAI0017, 4-Ethyl-N-(5-sulfamoyl-1,3,4-thiadiazol-2-yl)benzamide] has an MIC ([1]; Enterococcus) of 8 µg/mL (≈ 25.6 µM), an MIC ([2]; Enterococcus faecium, E417HM965, Table 1, read-out: MIC) of 0.25 µg/mL (≈ 0.8 µM) and an MIC ([2]; Enterococcus faecium, E417HM965, Table 7, read-out: MIC in TSB) of 0.25 µg/mL (≈ 0.8 µM). It also gave an MIC [3, 26] of 1 µg/mL (≈ 3.2 µM), an MIC [3, 27] of 1 µg/mL (≈ 3.2 µM) and an MIC [4, 26] of 1 µg/mL (≈ 3.2 µM). The MIC [4, 27] was 1 µg/mL (≈ 3.2 µM), the MIC ([5]; Enterococcus faecium, Table 1, read-out: MIC) was 1 µg/mL (≈ 3.2 µM) and the MIC ([5]; Enterococcus faecium, Table 7, read-out: MIC in TSB) was 1 µg/mL (≈ 3.2 µM). For the same compound, the MIC ([6]; Enterococcus) was 8 µg/mL (≈ 25.6 µM), the MIC ([7]; Enterococcus) was 8 µg/mL (≈ 25.6 µM) and the MIC [8, 28] was > 64 µg/mL. For the same compound, the MIC ([9]; Enterococcus) was 16 µg/mL (≈ 51.2 µM), the MIC [10, 29] was > 64 µg/mL and the MIC [11, 30] was > 64 µg/mL. The MIC ([12]; Bifidobacterium, read-out: MIC) was > 64 µg/mL, the MIC ([13]; Bacteroides, read-out: MIC) was > 64 µg/mL and the MIC ([14]; Bacteroides, read-out: MIC) was > 64 µg/mL. The MIC [15, 31] was > 64 µg/mL, the MIC ([16]; Enterococcus) was 8 µg/mL (≈ 25.6 µM) and the MIC ([17]; Enterococcus) was 8 µg/mL (≈ 25.6 µM). It also gave an MIC ([18]; Enterococcus) of 8 µg/mL (≈ 25.6 µM), an MIC ([19]; Enterococcus) of 16 µg/mL (≈ 51.2 µM) and an MIC ([20]; Enterococcus) of 16 µg/mL (≈ 51.2 µM). For the same compound, the MIC [21, 32] was > 64 µg/mL, the MIC ([22]; Enterococcus) was 8 µg/mL (≈ 25.6 µM) and the MIC ([23]; Enterococcus) was 16 µg/mL (≈ 51.2 µM). For the same compound, the MIC ([24]; Enterococcus) was 16 µg/mL (≈ 51.2 µM) and the MIC ([25]; Enterococcus) was 8 µg/mL (≈ 25.6 µM).
